Measurements as given in PubChem BioAssay (NCI).
Values joined by “and” are separate entries in the source; they are usually repeats but may differ in a detail not shown here. Equal values may be shown once.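 48-hour exposure; five concentrations; linearly interpolated endpoints. The concentration for 50% growth inhibition is given as GI50. TGI: total growth inhibition.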

Key:
Assay in all cases: inhibition of tumour cell growth, NCI panel, 48 h
MALME-3M melanoma = test system: MALME-3M melanoma
HS 578T breast = test system: HS 578T breast
MDA-MB-231 breast = test system: MDA-MB-231 breast
SW-620 colon = test system: SW-620 colon
HCT-15 colon = test system: HCT-15 colon
U251 CNS = test system: U251 CNS
DU-145 prostate = test system: DU-145 prostate
SK-MEL-2 melanoma = test system: SK-MEL-2 melanoma
K-562 leukemia = test system: K-562 leukemia
LOX IMVI melanoma = test system: LOX IMVI melanoma

| SMILES | GI50 (MALME-3M melanoma) | TGI (MALME-3M melanoma) | GI50 (HS 578T breast) | TGI (HS 578T breast) | GI50 (MDA-MB-231 breast) | TGI (MDA-MB-231 breast) | GI50 (SW-620 colon) | TGI (SW-620 colon) | GI50 (HCT-15 colon) | TGI (HCT-15 colon) | GI50 (U251 CNS) | TGI (U251 CNS) | GI50 (DU-145 prostate) | TGI (DU-145 prostate) | GI50 (SK-MEL-2 melanoma) | TGI (SK-MEL-2 melanoma) | GI50 (K-562 leukemia) | TGI (K-562 leukemia) | GI50 (LOX IMVI melanoma) | TGI (LOX IMVI melanoma) |
| --- | --- | --- | --- | --- | --- | --- | --- | --- | --- | --- | --- | --- | --- | --- | --- | --- | --- | --- | --- | --- |
| COc1cc(N(CCC#N)CCC#N)ccc1/C(N=Nc1ccc(C(=O)O)cc1)=N/NC(=O)c1cc(Br)ccc1O | > 150 µg/mL | > 150 µg/mL | 77.3 µg/mL | > 150 µg/mL | 72.7 µg/mL | > 150 µg/mL | > 150 µg/mL | > 150 µg/mL | 35.8 µg/mL | 95 µg/mL | > 150 µg/mL | > 150 µg/mL | > 150 µg/mL | > 150 µg/mL | > 150 µg/mL | > 150 µg/mL | > 150 µg/mL | > 150 µg/mL | 84.4 µg/mL | > 150 µg/mL |
| Fc1ccc(-c2nn3c(COc4ccc(Cl)cc4)nnc3s2)cc1Oc1ccccc1 | 29 µM | 67.4 µM | 22.4 µM | 61.4 µM | 16.4 µM | 35.8 µM | 48.4 µM | > 100 µM | > 60.6 µM | > 100 µM | 25.1 µM | > 53.5 µM | 48.5 µM | > 100 µM | 38.6 µM | > 100 µM | 42.1 µM | > 100 µM | > 42.2 µM | > 56.3 µM |
| OCCCCC#Cc1ccccc1C#Cc1ccc(C(F)(F)F)cc1 | 19.7 µM | 35.5 µM | 26.3 µM | 65.9 µM | 18.6 µM | 34 µM | 17 µM | 35.2 µM | 12.5 µM | 25.4 µM | 14.8 µM | 28.6 µM | 15.8 µM | 31.7 µM | 16 µM | 33.9 µM | 18.2 µM | 43.6 µM | 17.1 µM | 31.5 µM |
| Cc1nc2c(Br)cc(Br)cc2c(=O)n1-c1ccccc1NC1OCC(O)C(O)C1O (stereo unspecified) |  | > 100 µM |  | > 100 µM |  | > 100 µM |  | > 100 µM |  | > 100 µM | 38.3 µM and 16.1 µM | > 100 µM | 44.9 µM and 19.2 µM | > 100 µM and 46.3 µM |  | > 100 µM | 15.1 µM and > 32.7 µM | 46.6 µM and > 81.2 µM |  | 97.7 µM and > 51.3 µM |
| Nc1ncc(C2[C@H](CNC(=O)c3cc(Br)c[nH]3)C(CNC(=O)c3cc(Br)c[nH]3)[C@@H]2c2cnc(N)[nH]2)[nH]1 (stereo partly specified) | > 50 µM | > 50 µM | 40.1 µM | > 50 µM | 8.01 µM | > 50 µM | > 50 µM | > 50 µM | > 50 µM | > 50 µM | > 50 µM | > 50 µM | 0.329 µM | > 50 µM | > 50 µM | > 50 µM | 48.1 µM | > 50 µM | > 50 µM | > 50 µM |
| O=C(N/N=C/c1ccc(F)cc1)c1ccc(C(F)(F)F)nc1Nc1cccc(C(F)(F)F)c1 | 1.28 µM | 4.68 µM | 1.73 µM | 6.87 µM | 1.23 µM | 4.82 µM | 0.959 µM | 8.44 µM | 0.351 µM | 1.87 µM | 0.598 µM | 2.98 µM | 0.444 µM | 1.88 µM |  |  | 1.07 µM | 5.02 µM | 0.522 µM | 2.17 µM |
